SMILES strings stand for the structures.

This is an account of results in ChEMBL document CHEMBL1157193, “Synthesis and anti-Trypanosoma cruzi activity of derivatives from nor-lapachones and lapachones” (Bioorg Med Chem, 2008).

This assay has as its system Trypanosoma cruzi. Kind of assay: Trypanocidal activity against Trypanosoma cruzi Y blood stream trypomastigotes after 24 hrs. In kind it is functional, organism-based.
As a reminder, the IC50 is the concentration needed to halve the response being measured. Read a low IC50 as inhibition by little substance. For the molecule `CC1(C)OC2=C(C(=O)C(=O)c3ccccc32)C1Nc1cccc(Br)c1` (stereo not drawn), the IC50 turned out to be 141 µM.
With `CC1(C)OC2=C(C(=O)c3ccccc3C2=O)C1N=[N+]=[N-]` (stereo not drawn) the figure was 179 µM; with `CC1(C)OC2=C(C(=O)C(=O)c3ccccc32)C1Nc1cccc([N+](=O)[O-])c1` (stereo not drawn), 86.3 µM; with `CC1(C)OC2=C(C(=O)C(=O)c3ccccc32)C1Nc1cccc(Cl)c1` (stereo not drawn), 333 µM.
Regarding `CC1(C)CC(Nc2ccccc2)C2=C(O1)C(=O)c1ccccc1C2=O` (stereo not drawn), half-maximal inhibition (IC50) was put at 342 µM.
With `CC1(C)OC2=C(C(=O)C(=O)c3ccccc32)C1Nc1ccc([N+](=O)[O-])cc1` (stereo not drawn) the figure was 857 µM; with `CC(C)=CCC1=C(O)C(=O)c2ccccc2C1=O` [LAPACHOL], 411 µM.
In the case of `CC1(C)OC2=C(C(=O)C(=O)c3ccccc32)C1Nc1ccc(Br)cc1` (stereo not drawn), 952 µM corresponded to half-maximal inhibition (IC50).
With `COc1ccc(NC2C3=C(OC2(C)C)c2ccccc2C(=O)C3=O)cc1` (stereo not drawn) the figure was 88.2 µM.
With `Cc1ccc(C)c(NC2C3=C(OC2(C)C)c2ccccc2C(=O)C3=O)c1` (stereo not drawn) the figure was 1760 µM; with `CC1(C)OC2=C(C(=O)C(=O)c3ccccc32)C1Nc1cccc(F)c1` (stereo not drawn), above 4000 µM.
On to `CC1(C)OC2=C(C(=O)C(=O)c3ccccc32)C1Nc1ccc(F)cc1` (stereo not drawn), for which it took 2520 µM to reach half-maximal inhibition (IC50).
With `CC1(C)OC2=C(C(=O)c3ccccc3C2=O)C1Nc1ccccc1` (stereo not drawn) the figure was above 4000 µM; with `CC1(C)CC2=C(O1)C(=O)c1ccccc1C2=O`, above 4800 µM.
With `CC1(C)OC2=C(C(=O)C(=O)c3ccccc32)C1Nc1ccc(Cl)cc1` (stereo not drawn) the figure was 384 µM; with `CC1(C)CC2=C(O1)C1(CO1)c1ccccc1C2=O` (stereo not drawn), above 4000 µM; with `CC1(C)OC2=C(C(=O)C(=O)c3ccccc32)C1O` (stereo not drawn), 212 µM.
With `CC1(C)CCC2=C(O1)C(=O)c1ccccc1C2=O` [ALPHA-LAPACHONE] the figure was above 4800 µM.
